In PubChem BioAssay (NCI):
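In this assay, cells in 96-well plates receive the compound at five concentrations for 48 hours. Endpoints are linearly interpolated between the surrounding concentrations. TGI marks complete inhibition of growth.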

Key:
Assay in all cases: NCI-60 cell line screen, 48 h
SK-OV-3 ovarian = system: SK-OV-3 ovarian
SR leukemia = system: SR leukemia
HL-60(TB) leukemia = system: HL-60(TB) leukemia
HT29 colon = system: HT29 colon
RXF 393 renal = system: RXF 393 renal
CCRF-CEM leukemia = system: CCRF-CEM leukemia
SF-268 CNS = system: SF-268 CNS
HOP-62 NSCLC = system: HOP-62 NSCLC
786-0 renal = system: 786-0 renal
SW-620 colon = system: SW-620 colon
NCI-H23 lung = system: NCI-H23 lung
NCI-H226 lung = system: NCI-H226 lung
M14 melanoma = system: M14 melanoma
SNB-75 CNS = system: SNB-75 CNS
M19-MEL melanoma = system: M19-MEL melanoma
DLD-1 colon = system: DLD-1 colon
A498 renal = system: A498 renal
U251 CNS = system: U251 CNS
MALME-3M melanoma = system: MALME-3M melanoma
TK-10 renal = system: TK-10 renal
LOX IMVI melanoma = system: LOX IMVI melanoma
OVCAR-4 ovarian = system: OVCAR-4 ovarian
SNB-78 CNS = system: SNB-78 CNS
KM20L2 colon = system: KM20L2 colon
COLO 205 colon = system: COLO 205 colon
LXFL 529 NSCLC = system: LXFL 529 NSCLC
HCT-15 colon = system: HCT-15 colon
EKVX NSCLC = system: EKVX NSCLC
DMS 273 small cell lung = system: DMS 273 small cell lung
OVCAR-5 ovarian = system: OVCAR-5 ovarian
RPMI-8226 leukemia = system: RPMI-8226 leukemia
UACC-62 melanoma = system: UACC-62 melanoma
NCI-H460 lung = system: NCI-H460 lung
NCI-H522 lung = system: NCI-H522 lung
HCC-2998 colon = system: HCC-2998 colon
HCT-116 colon = system: HCT-116 colon
UO-31 renal = system: UO-31 renal
IGROV1 ovarian = system: IGROV1 ovarian
ACHN renal = system: ACHN renal
SN12C renal = system: SN12C renal
OVCAR-8 ovarian = system: OVCAR-8 ovarian
SNB-19 CNS = system: SNB-19 CNS
K-562 leukemia = system: K-562 leukemia
OVCAR-3 ovarian = system: OVCAR-3 ovarian
CAKI-1 renal = system: CAKI-1 renal
KM12 colon = system: KM12 colon
HOP-92 NSCLC = system: HOP-92 NSCLC
MOLT-4 leukemia = system: MOLT-4 leukemia
A549 NSCLC = system: A549 NSCLC
UACC-257 melanoma = system: UACC-257 melanoma

## COC(=O)C(C(=O)C(=O)Nc1nc(=S)[nH][nH]1)c1csc(-n2nc(-c3ccccc3)cc2-c2ccccc2)n1 (stereo not given)
SK-OV-3 ovarian
  TGI: > 100 µM
SR leukemia
  TGI: > 100 µM
HL-60(TB) leukemia
  TGI: > 100 µM
HT29 colon
  TGI: > 100 µM
RXF 393 renal
  TGI: > 100 µM
CCRF-CEM leukemia
  TGI: > 100 µM
SF-268 CNS
  TGI: > 100 µM
HOP-62 NSCLC
  TGI: > 100 µM
786-0 renal
  TGI: > 100 µM
SW-620 colon
  TGI: > 100 µM
NCI-H23 lung
  TGI: > 100 µM
NCI-H226 lung
  TGI: > 100 µM
M14 melanoma
  TGI: > 100 µM
SNB-75 CNS
  TGI: 78.5 µM
M19-MEL melanoma
  TGI: > 100 µM
DLD-1 colon
  TGI: > 100 µM
A498 renal
  TGI: > 100 µM
U251 CNS
  TGI: > 100 µM
MALME-3M melanoma
  TGI: > 100 µM
TK-10 renal
  TGI: > 100 µM
LOX IMVI melanoma
  TGI: > 100 µM
OVCAR-4 ovarian
  TGI: > 100 µM
SNB-78 CNS
  TGI: > 100 µM
KM20L2 colon
  TGI: > 100 µM
COLO 205 colon
  TGI: > 100 µM
LXFL 529 NSCLC
  TGI: > 100 µM
HCT-15 colon
  TGI: > 100 µM
EKVX NSCLC
  TGI: > 100 µM
DMS 273 small cell lung
  TGI: > 100 µM
OVCAR-5 ovarian
  TGI: > 100 µM
RPMI-8226 leukemia
  TGI: > 100 µM
UACC-62 melanoma
  TGI: > 100 µM
NCI-H460 lung
  TGI: > 100 µM
NCI-H522 lung
  TGI: > 100 µM
HCC-2998 colon
  TGI: > 100 µM
HCT-116 colon
  TGI: > 100 µM
UO-31 renal
  TGI: > 100 µM
IGROV1 ovarian
  TGI: > 100 µM
ACHN renal
  TGI: > 100 µM
SN12C renal
  TGI: > 100 µM
OVCAR-8 ovarian
  TGI: > 100 µM
SNB-19 CNS
  TGI: > 100 µM
K-562 leukemia
  TGI: > 100 µM
OVCAR-3 ovarian
  TGI: > 100 µM
CAKI-1 renal
  TGI: > 100 µM
KM12 colon
  TGI: > 100 µM
HOP-92 NSCLC
  TGI: > 100 µM
MOLT-4 leukemia
  TGI: > 100 µM
A549 NSCLC
  TGI: > 100 µM
UACC-257 melanoma
  TGI: > 100 µM
